± gives the standard deviation of the averaged measurements.
Experiments:
Assay in all cases: pIC50, kinobeads binding competition
Settings in all cases: cell material: Jurkat lysate
CDKL5 = biological target: T1, CDKL5 (UniProt O76039)
T1 sequence (whole entry): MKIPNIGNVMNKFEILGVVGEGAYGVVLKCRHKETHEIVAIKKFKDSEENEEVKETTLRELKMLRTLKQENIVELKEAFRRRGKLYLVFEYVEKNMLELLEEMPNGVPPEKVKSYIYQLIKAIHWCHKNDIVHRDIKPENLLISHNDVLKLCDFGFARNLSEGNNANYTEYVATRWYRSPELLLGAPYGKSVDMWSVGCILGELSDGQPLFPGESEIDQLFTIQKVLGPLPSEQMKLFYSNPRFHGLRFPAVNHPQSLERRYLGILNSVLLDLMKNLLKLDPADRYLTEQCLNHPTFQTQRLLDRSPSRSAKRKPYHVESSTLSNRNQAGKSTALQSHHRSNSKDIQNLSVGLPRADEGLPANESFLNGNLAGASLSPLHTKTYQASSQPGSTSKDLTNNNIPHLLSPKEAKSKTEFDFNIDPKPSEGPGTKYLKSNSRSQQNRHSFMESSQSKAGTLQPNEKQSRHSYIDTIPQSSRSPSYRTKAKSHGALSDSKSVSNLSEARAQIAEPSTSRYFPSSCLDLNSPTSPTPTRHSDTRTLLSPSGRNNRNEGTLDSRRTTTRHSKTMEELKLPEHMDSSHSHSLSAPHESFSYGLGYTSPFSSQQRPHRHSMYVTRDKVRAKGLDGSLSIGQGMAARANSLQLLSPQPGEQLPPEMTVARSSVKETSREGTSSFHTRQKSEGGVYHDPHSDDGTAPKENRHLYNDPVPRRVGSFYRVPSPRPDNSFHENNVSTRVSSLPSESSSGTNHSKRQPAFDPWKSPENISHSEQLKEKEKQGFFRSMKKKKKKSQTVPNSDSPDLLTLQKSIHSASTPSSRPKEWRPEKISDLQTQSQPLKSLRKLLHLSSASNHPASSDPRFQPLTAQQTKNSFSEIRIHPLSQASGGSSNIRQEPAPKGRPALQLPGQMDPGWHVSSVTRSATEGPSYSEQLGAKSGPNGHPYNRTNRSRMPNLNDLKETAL

EPHA3 = biological target: T2, EPHA3 (UniProt P29320)
T2 sequence (whole entry): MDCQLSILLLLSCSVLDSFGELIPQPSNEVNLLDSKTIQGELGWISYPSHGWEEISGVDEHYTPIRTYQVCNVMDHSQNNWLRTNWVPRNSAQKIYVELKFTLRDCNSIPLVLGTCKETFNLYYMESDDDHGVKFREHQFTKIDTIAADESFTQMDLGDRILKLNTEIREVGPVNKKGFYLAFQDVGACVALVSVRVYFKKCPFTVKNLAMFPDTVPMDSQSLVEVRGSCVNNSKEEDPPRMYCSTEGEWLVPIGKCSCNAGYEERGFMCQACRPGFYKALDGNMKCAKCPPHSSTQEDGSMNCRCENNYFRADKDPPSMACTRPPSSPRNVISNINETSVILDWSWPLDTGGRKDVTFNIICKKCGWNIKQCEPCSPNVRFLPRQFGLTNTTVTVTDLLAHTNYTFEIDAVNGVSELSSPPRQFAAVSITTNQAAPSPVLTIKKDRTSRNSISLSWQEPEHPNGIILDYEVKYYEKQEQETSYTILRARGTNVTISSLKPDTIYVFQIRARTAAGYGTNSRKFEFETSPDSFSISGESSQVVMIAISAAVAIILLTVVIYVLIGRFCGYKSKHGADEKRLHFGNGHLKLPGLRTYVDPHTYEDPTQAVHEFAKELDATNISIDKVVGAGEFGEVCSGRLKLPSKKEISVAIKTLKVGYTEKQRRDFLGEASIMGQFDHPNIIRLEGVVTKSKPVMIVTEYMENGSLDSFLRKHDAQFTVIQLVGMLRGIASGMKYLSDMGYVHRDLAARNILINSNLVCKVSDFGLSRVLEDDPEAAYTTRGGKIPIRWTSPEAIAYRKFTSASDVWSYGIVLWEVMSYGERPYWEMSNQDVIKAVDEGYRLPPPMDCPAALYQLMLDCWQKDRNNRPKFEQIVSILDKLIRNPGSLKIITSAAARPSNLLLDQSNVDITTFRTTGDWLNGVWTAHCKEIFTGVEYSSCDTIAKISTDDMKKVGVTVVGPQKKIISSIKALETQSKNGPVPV

FER = FER (UniProt P16591)
Sequence of FER (P16591 whole entry, looked up): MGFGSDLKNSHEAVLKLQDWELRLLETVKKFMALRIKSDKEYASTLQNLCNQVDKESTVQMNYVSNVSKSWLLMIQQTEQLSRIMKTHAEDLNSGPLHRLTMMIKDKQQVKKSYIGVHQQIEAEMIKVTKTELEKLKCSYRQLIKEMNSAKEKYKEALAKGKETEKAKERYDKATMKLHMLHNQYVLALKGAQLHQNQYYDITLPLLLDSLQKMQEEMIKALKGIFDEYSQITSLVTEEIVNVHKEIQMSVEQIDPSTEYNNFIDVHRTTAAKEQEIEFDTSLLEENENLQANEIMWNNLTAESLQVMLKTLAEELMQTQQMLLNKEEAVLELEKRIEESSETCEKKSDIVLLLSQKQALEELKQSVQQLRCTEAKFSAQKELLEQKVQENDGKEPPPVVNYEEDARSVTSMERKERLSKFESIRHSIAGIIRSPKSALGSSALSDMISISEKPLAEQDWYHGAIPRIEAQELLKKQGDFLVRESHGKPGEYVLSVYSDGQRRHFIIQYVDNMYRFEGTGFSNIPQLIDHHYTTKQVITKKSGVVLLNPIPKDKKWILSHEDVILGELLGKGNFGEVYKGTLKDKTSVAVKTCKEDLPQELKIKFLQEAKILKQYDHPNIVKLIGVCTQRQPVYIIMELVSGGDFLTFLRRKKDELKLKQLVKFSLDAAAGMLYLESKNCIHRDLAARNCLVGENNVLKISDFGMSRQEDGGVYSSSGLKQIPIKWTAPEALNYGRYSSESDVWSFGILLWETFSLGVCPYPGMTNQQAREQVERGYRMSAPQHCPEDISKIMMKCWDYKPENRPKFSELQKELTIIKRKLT

JAK1 = JAK1 (UniProt P23458)
Sequence of JAK1 (P23458 whole entry): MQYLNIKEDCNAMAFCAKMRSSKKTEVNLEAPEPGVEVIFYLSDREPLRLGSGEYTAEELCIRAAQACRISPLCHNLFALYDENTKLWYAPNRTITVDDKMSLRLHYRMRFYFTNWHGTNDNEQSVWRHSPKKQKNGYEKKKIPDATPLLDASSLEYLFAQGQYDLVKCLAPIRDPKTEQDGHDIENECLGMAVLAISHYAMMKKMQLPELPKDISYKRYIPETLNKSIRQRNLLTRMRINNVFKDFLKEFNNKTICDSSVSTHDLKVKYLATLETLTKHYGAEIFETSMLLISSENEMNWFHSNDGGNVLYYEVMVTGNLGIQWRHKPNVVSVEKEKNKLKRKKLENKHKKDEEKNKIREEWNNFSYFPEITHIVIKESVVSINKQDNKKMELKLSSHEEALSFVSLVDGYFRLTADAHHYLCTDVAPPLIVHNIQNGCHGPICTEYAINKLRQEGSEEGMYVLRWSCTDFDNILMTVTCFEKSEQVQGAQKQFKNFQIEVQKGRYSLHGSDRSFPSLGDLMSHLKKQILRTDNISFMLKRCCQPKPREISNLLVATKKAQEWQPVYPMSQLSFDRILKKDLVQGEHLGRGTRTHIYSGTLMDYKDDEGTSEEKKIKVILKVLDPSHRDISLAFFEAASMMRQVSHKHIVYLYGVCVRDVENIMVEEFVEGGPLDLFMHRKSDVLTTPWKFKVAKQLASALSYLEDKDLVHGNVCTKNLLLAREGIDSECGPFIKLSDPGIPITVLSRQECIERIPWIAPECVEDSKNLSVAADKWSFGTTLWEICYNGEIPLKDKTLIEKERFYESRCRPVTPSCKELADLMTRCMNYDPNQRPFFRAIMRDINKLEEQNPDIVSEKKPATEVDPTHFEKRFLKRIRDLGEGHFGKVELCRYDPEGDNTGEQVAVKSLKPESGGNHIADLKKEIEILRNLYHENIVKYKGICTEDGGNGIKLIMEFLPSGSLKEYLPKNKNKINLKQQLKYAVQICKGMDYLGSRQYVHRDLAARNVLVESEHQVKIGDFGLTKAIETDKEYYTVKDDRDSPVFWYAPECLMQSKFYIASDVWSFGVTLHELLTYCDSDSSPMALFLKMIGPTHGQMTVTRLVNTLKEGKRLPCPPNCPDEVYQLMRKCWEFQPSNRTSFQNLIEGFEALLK

PRKCH = PRKCH (UniProt P24723)
Sequence of PRKCH (P24723 whole entry, looked up): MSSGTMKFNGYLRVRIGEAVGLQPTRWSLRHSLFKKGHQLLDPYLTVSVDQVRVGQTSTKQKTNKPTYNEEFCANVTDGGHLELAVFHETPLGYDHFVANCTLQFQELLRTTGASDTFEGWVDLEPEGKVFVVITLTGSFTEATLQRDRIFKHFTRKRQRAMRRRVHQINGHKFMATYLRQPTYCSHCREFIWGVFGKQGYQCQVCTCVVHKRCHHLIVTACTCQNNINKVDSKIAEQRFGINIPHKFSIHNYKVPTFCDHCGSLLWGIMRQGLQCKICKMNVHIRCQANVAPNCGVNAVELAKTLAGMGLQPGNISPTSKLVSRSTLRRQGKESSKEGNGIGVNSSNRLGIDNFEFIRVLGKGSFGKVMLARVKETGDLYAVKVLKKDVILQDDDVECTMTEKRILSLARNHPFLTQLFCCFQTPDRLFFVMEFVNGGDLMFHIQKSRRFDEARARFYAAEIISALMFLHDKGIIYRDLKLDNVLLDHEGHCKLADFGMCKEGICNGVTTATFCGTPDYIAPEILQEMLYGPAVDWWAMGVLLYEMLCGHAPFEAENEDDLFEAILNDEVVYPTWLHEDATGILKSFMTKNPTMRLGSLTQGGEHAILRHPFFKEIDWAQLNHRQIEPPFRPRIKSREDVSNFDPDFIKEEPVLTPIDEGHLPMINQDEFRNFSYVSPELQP

TTK = biological target: T3, TTK (UniProt P33981)
T3 sequence (whole entry): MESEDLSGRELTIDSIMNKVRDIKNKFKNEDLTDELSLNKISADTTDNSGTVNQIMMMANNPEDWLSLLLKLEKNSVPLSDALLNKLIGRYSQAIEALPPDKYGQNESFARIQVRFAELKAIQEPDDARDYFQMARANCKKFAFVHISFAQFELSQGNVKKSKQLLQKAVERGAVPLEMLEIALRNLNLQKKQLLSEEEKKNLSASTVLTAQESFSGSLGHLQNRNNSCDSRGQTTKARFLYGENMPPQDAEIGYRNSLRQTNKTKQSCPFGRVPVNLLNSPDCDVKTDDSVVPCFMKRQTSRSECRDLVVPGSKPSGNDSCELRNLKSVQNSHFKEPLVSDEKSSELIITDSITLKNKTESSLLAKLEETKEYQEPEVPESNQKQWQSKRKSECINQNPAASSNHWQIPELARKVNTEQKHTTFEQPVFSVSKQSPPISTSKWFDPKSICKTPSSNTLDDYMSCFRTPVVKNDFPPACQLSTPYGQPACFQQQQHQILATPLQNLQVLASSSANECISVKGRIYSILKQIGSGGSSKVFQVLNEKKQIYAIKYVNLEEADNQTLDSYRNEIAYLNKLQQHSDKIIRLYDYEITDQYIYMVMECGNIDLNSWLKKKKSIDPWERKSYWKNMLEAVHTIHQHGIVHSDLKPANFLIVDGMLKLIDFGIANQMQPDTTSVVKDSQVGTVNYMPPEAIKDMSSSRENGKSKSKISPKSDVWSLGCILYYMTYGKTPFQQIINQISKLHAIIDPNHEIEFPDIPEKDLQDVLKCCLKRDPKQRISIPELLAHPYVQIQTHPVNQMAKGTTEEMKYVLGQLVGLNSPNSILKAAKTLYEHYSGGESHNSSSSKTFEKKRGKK

UniProt O95747 = biological target: UniProt O95747
Sequence of UniProt O95747 (O95747 whole entry, looked up): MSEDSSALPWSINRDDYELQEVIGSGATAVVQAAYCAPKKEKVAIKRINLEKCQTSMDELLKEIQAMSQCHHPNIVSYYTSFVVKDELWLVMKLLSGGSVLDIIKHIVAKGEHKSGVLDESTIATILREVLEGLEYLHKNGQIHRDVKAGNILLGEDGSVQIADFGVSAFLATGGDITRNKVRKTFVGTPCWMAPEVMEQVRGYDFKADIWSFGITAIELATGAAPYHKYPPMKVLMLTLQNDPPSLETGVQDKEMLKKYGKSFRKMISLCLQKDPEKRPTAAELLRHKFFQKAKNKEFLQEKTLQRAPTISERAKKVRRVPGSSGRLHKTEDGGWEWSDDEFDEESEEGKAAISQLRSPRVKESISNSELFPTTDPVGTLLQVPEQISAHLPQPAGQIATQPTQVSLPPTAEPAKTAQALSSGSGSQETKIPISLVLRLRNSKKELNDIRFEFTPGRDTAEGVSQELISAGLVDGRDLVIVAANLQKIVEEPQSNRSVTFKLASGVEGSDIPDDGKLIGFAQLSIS

CCc1cnn2c(NCc3ccc[n+]([O-])c3)cc(N3CCCC[C@H]3CCO)nc12 [dinaciclib]
pIC50 (CDKL5): 6.485 ± 0.035 | pIC50 (EPHA3): < 4.52 | pIC50 (FER): < 4.52 | pIC50 (JAK1): < 4.52 | pIC50 (PRKCH): < 4.52 | pIC50 (TTK): < 4.52 | pIC50 (UniProt O95747): < 4.52
